Results: patent US20200071316A1, “ACTIVATORS OF THE RETINOIC ACID INDUCIBLE GENE "RIG-I" PATHWAY AND METHODS OF USE THEREOF” (Kineta Immuno-Oncology LLC, priority 2018, published 2020)
Marks after values point to notes of the source that are not given here.

Experiments:
[1] = tested on: THP1-Lucia ISG IRF3 −/− cells; test: IRF3-deficient THP1-Lucia ISG IRF3 −/− reporter assay (counter-screen); assay type: cell-based; conditions: Homo sapiens, 18 h after stimulation, read-out: THP1 ISG IRF3 −/−: fold increase of luciferase activity over background; for fold induction at 10 µM: 10 μM compound; for fold induction at 5 µM: 5 μM compound (**); for fold induction at 20 µM: 20 μM compound (*)
Outline: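 PMA-differentiated (100 ng/ml) reporter cells carrying ISRE/ISG54 minimal promoter-driven secreted luciferase were stimulated with compounds at 5–20 μM (mostly 10 μM). Luciferase measured 18 h later and expressed as fold increase over untreated background, binned from "−" (<2.4-fold) to "+++++" (≥40-fold).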

[2] = tested on: CXCL10 secretion by CT26 cells; test: RIG-I dependent CXCL10 secretion by CT26 colon carcinoma cells (ELISA); assay type: cell-based, murine; conditions: 24 h
Outline: (§1)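 Murine CT26 colon carcinoma cells, and CRISPR-generated RIG-I knockout CT26 cells, were seeded at 1×10^4 cells/well and grown 24 h at 37 °C, 5% CO2, then treated with compounds at 5 to 20 μM. CXCL10 in supernatants was measured by ELISA 24 h after stimulation.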

[3] = tested on: RIG-I deficient CT26 RIG-1−/− cells; test: CXCL10 secretion in RIG-I deficient CT26 RIG-1−/− cells (ELISA); assay type: cell-based, murine; conditions: 24 h
Outline: as §1

[4] = tested on: IRF3 signaling pathway (IRF-inducible ISG54 promotor) in THP1-Lucia ISG cells; test: THP1-Lucia ISG reporter assay: induction of IRF3-dependent luciferase activity; assay type: cell-based; conditions: Homo sapiens, PMA-differentiated cells, 18 h after stimulation, read-out: THP1 ISG: fold increase of IRF3-dependent luciferase activity over background; for fold induction at 10 µM: 10 μM compound; for fold induction at 5 µM: 5 μM compound (**); for fold induction at 20 µM: 20 μM compound (*)
Outline: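 PMA-differentiated (100 ng/ml) reporter cells, parental and IRF3−/−, stimulated with compounds at 5–20 μM (mostly 10 μM). Secreted luciferase measured 18 h later. Scored as fold increase over untreated background in bands from "−" (<2.4-fold) to "+++++" (≥40-fold).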

Row | Compound | fold induction at 10 µM [1] | CXCL10 secretion by CT26 cells ([2]; 10 μM compound) | CXCL10 secretion by CT26 RIG-I −/− cells ([3]; 10 μM compound) | fold induction at 10 µM [4] | also measured
1 | O=C(Nc1nc2ccc(-c3nc4ccccc4[nH]3)cc2s1)c1ccc2ccccc2c1 [Example 10, N-[6-(1H-1,3-benzodiazol-2-yl)-1,3-benzothiazol-2-yl]naphthalene-2-carboxamide] | < 2.4 | +++ (“+++” indicates 400-799 pg/mL) | − (“−” indicates less than 100 pg/mL) | 5 to 9.9 | 
2 | O=C(Nc1nc2ccc(S(=O)(=O)N3CCCC3)cc2s1)c1sc2ccccc2c1OCCN1CCOCC1 [Example 84, 3-[2-(morpholin-4-yl)ethoxy]-N-[6-(pyrrolidine-1-sulfonyl)-1,3-benzothiazol-2-yl]-1-benzothiophene-2-carboxamide] | < 2.4 | ++ (“++” indicates 200-399 pg/mL) | − (“−” indicates less than 100 pg/mL) | 5 to 9.9 | 
3 | O=C(Nc1nc2ccc(OCC(F)(F)F)cc2s1)c1cc2ccccc2cc1OCCN1CCOCC1 [Example 54, 3-[2-(morpholin-4-yl)ethoxy]-N-[6-(2,2,2-trifluoroethoxy)-1,3-benzothiazol-2-yl]naphthalene-2-carboxamide] | < 2.4 | − (“−” indicates less than 100 pg/mL) | − (“−” indicates less than 100 pg/mL) | 2.4 to 4.9 | 
4 | O=C(Nc1nc2ccc([N+](=O)[O-])cc2s1)c1cc2ccccc2cc1OCCCCN1CCOCC1 [Example 23, 3-[4-(morpholin-4-yl)butoxy]-N-(6-nitro-1,3-benzothiazol-2-yl)naphthalene-2-carboxamide] |  |  |  |  | fold induction at 5 µM [1]: < 2.4; CXCL10 secretion by CT26 cells ([2]; 5 μM compound (**)): ++++** (“++++” indicates 800 to 1599 pg/mL); CXCL10 secretion by CT26 RIG-I −/− cells ([3]; 5 μM compound (**)): −** (“−” indicates less than 100 pg/mL); fold induction at 5 µM [4]: 5 to 9.9
5 | O=C(Nc1nc2ccc(S(=O)(=O)N3CCCC3)cc2s1)c1ccc(-c2ccccc2)cc1OCCN1CCOCC1 [Example 47, 3-[2-(morpholin-4-yl)ethoxy]-N-[6-(pyrrolidine-1-sulfonyl)-1,3-benzothiazol-2-yl]-[1,1′-biphenyl]-4-carboxamide] | < 2.4 | +++ (“+++” indicates 400-799 pg/mL) | − (“−” indicates less than 100 pg/mL) | ≥ 40 | 
6 | COC(=O)c1ccc2nc(NC(=O)c3cc4ccccc4cc3OCCCCN3CCOCC3)sc2c1 [Example 66, methyl 2-{3-[4-(morpholin-4-yl)butoxy]naphthalene-2-amido}-1,3-benzothiazole-6-carboxylate] |  |  |  |  | fold induction at 5 µM [1]: < 2.4; CXCL10 secretion by CT26 cells ([2]; 5 μM compound (**)): ++** (“++” indicates 200-399 pg/mL); CXCL10 secretion by CT26 RIG-I −/− cells ([3]; 5 μM compound (**)): −** (“−” indicates less than 100 pg/mL); fold induction at 5 µM [4]: 5 to 9.9
7 | O=C(Nc1nc2ccc(SC(F)F)cc2s1)c1cc2ccccc2cc1OCCN1CCOCC1 [Example 48, N-{6-[(difluoromethyl)sulfanyl]-1,3-benzothiazol-2-yl}-3-[2-(morpholin-4-yl)ethoxy]naphthalene-2-carboxamide] |  | ++ (“++” indicates 200-399 pg/mL) | − (“−” indicates less than 100 pg/mL) |  | fold induction at 20 µM [1]: < 2.4; fold induction at 20 µM [4]: 2.4 to 4.9
8 | O=C(Nc1nc2ccc(S(=O)(=O)N3CCC3)cc2s1)c1ccc(-c2ccccc2)cc1OCCCCN1CCOCC1 [Example 59] | < 2.4 | +++ (“+++” indicates 400-799 pg/mL) | − (“−” indicates less than 100 pg/mL) | 10 to 19 | 
9 | O=C(Nc1cc2ccc(S(=O)(=O)N3CCCC3)cc2s1)c1cc2ccsc2cc1OCCCCN1CCOCC1 [Example 72, 6-[4-(morpholin-4-yl)butoxy]-N-[6-(pyrrolidine-1-sulfonyl)-1-benzothiophen-2-yl]-1-benzothiophene-5-carboxamide] | < 2.4 | ++++ (“++++” indicates 800 to 1599 pg/mL) | − (“−” indicates less than 100 pg/mL) | 20 to 39 | 
10 | O=C(Nc1nc2ccc(S(=O)(=O)N3CCCCC3)cc2s1)c1cc2ccccc2cc1OCCN1CCOCC1 [Example 37, 3-[2-(morpholin-4-yl)ethoxy]-N-[6-(piperidine-1-sulfonyl)-1,3-benzothiazol-2-yl]naphthalene-2-carboxamide] | < 2.4 | +++ (“+++” indicates 400-799 pg/mL) | − (“−” indicates less than 100 pg/mL) | 10 to 19 | 
11 | O=C(Nc1nc2ccc(S(=O)(=O)N3CCC3)cc2s1)c1ccc2ccccc2c1 [Example 46, N-[6-(azetidine-1-sulfonyl)-1,3-benzothiazol-2-yl]naphthalene-2-carboxamide] |  | ++ (“++” indicates 200-399 pg/mL) | − (“−” indicates less than 100 pg/mL) |  | fold induction at 20 µM [1]: < 2.4; fold induction at 20 µM [4]: 10 to 19
12 | O=C(Nc1cc2ccc(S(=O)(=O)N3CCCC3)cc2s1)c1ccc(-c2ccccc2)cc1 [Example 81, N-[6-(pyrrolidine-1-sulfonyl)-1-benzothiophen-2-yl]-[1,1′-biphenyl]-4-carboxamide] | < 2.4 | ++++ (“++++” indicates 800 to 1599 pg/mL) | − (“−” indicates less than 100 pg/mL) | 20 to 39 | 
13 | CS(=O)(=O)c1ccc2nc(NC(=O)c3cc4ccccc4cc3OCCN3CCOCC3)sc2c1 [Example 44, N-(6-methanesulfonyl-1,3-benzothiazol-2-yl)-3-[2-(morpholin-4-yl)ethoxy]naphthalene-2-carboxamide] | < 2.4 |  |  | < 2.4 | CXCL10 secretion by CT26 cells ([2]; 5 μM compound (**)): ++** (“++” indicates 200-399 pg/mL); CXCL10 secretion by CT26 RIG-I −/− cells ([3]; 5 μM compound (**)): −** (“−” indicates less than 100 pg/mL)
14 | O=C(Nc1nc2ccc(S(=O)(=O)N3CCCCC3)cc2s1)c1cc2ccccc2cc1OCCCCN1CCOCC1 [Example 38, 3-[4-(morpholin-4-yl)butoxy]-N-[6-(piperidine-1-sulfonyl)-1,3-benzothiazol-2-yl]naphthalene-2-carboxamide] | < 2.4 | +++ (“+++” indicates 400-799 pg/mL) | − (“−” indicates less than 100 pg/mL) | 10 to 19 | 
15 | CS(=O)(=O)Nc1ccc2nc(NC(=O)c3cc4ccccc4cc3OCCN3CCOCC3)sc2c1 [Example 28, N-(6-methanesulfonamido-1,3-benzothiazol-2-yl)-3-[2-(morpholin-4-yl)ethoxy]naphthalene-2-carboxamide] | < 2.4 | + (“+” indicates 100-199 pg/mL) | − (“−” indicates less than 100 pg/mL) | 2.4 to 4.9 | 
16 | N#Cc1ccc2nc(NC(=O)c3cc4ccccc4cc3OCCCCN3CCOCC3)sc2c1 [Example 25, N-(6-cyano-1,3-benzothiazol-2-yl)-3-[4-(morpholin-4-yl)butoxy]naphthalene-2-carboxamide] |  |  |  |  | fold induction at 5 µM [1]: < 2.4; CXCL10 secretion by CT26 cells ([2]; 20 μM compound (*)): +* (“+” indicates 100-199 pg/mL); CXCL10 secretion by CT26 RIG-I −/− cells ([3]; 20 μM compound (*)): −* (“−” indicates less than 100 pg/mL); fold induction at 20 µM [4]: 2.4 to 4.9
17 | O=C(Nc1nc2ccc(S(=O)(=O)N3CC[C@@H](O)C3)cc2s1)c1cc2ccccc2cc1OCCN1CCOCC1 [Example 77, N-(6-{[(3R)-3-hydroxypyrrolidin-1-yl]sulfonyl}-1,3-benzothiazol-2-yl)-3-[2-(morpholin-4-yl)ethoxy]naphthalene-2-carboxamide] | < 2.4 | + (“+” indicates 100-199 pg/mL) | − (“−” indicates less than 100 pg/mL) | 2.4 to 4.9 | 
18 | O=C(Nc1nc2ccc(S(=O)(=O)N3CCOCC3)cc2s1)c1cc2ccccc2cc1OCCCCN1CCOCC1 [Example 17, 3-[4-(morpholin-4-yl)butoxy]-N-[6-(morpholine-4-sulfonyl)-1,3-benzothiazol-2-yl]naphthalene-2-carboxamide] | < 2.4 | +++ (“+++” indicates 400-799 pg/mL) | − (“−” indicates less than 100 pg/mL) | 10 to 19 | 
19 | O=C(Nc1nc2ccc(S(=O)(=O)N3CCC(O)C3)cc2s1)c1cc2ccccc2cc1OCCN1CCOCC1 (stereo not shown) [Example 56, N-{6-[(3-hydroxypyrrolidin-1-yl)sulfonyl]-1,3-benzothiazol-2-yl}-3-[2-(morpholin-4-yl)ethoxy]naphthalene-2-carboxamide] | < 2.4 | +++ (“+++” indicates 400-799 pg/mL) | − (“−” indicates less than 100 pg/mL) | 10 to 19 | 
